Measured values taken from ChEMBL document CHEMBL3399924, “Indirubin 3'-(O-oxiran-2-ylmethyl)oxime: a novel anticancer agent” (Bioorg Med Chem Lett, 2015).
Activity calls are given as the source filed them. The calls are words filed in the database; no cut-off is given here.

How the values were obtained:
[1] = system: HepG2; assay: Cytotoxicity against human HepG2 cells assessed cell death after 72 hrs at 3 uM by alamarBlue assay relative to control; format: functional; conditions: HepG2, 72 h
[2] = system: HepG2; assay: Cytotoxicity against human HepG2 cells assessed cell death after 72 hrs at 2 uM by alamarBlue assay relative to control; format: functional; conditions: HepG2, 72 h
[3] = Retention time of the compound by HPLC chromatogram; format: physicochemical
[4] = system: HepG2; assay: Antiproliferative activity against human HepG2 cells assessed cell survival after 24 hrs by alamarBlue assay; format: functional, cell-based
[5] = system: HepG2; assay: Cytotoxicity against human HepG2 cells assessed cell death after 72 hrs by alamarBlue assay relative to control; format: functional, cell-based; conditions: HepG2, 72 h
[6] = system: HepG2; assay: Drug formation in human HepG2 cells treated at 1 uM Epox/Ind by mass spectrometry; format: ADME, cell-based; conditions: hepg2, 1 µM
[7] = system: HepG2; assay: Cytotoxicity against human HepG2 cells assessed cell death after 24 hrs at 1 uM by alamarBlue assay relative to control; format: functional; conditions: HepG2, 24 h
[8] = system: HepG2; assay: Drug metabolisam in human HepG2 cells assessed as indirubin 3'-(O-2,3-dihydroxypropyl)oxime formation at 1 uM by mass spectrometry; format: ADME, cell-based; conditions: hepg2, 1 µM
[9] = system: HepG2; assay: Cytotoxicity against human HepG2 cells assessed cell survival rate after 72 hrs at 2 uM by alamarBlue assay relative to control; format: functional
[10] = system: HepG2; assay: Cytotoxicity against human HepG2 cells assessed cell survival rate after 24 hrs at 2 uM by alamarBlue assay relative to control; format: functional
[11] = system: HepG2; assay: Cytotoxicity against human HepG2 cells assessed cell survival after 24 hrs at 10 uM by alamarBlue assay; format: functional, cell-based
[12] = Homo sapiens, HepG2, 24 h, read-out: IC50

Structure (SMILES) | inhibition at 3 µM [1] | inhibition at 2 µM [2] | Retention_time [3] | IC50 [4, 12] | IC50 [5] | other results
O=C1Nc2ccccc2/C1=C1/Nc2ccccc2/C1=N\OCC(O)CO (stereo not drawn) | 58% | 15% | 3.392 min | 2100 nM | 2800 nM | Drug metabolism [6]: metabolite_detected
O=C1Nc2ccccc2/C1=C1/Nc2ccccc2C1=O [INDIRUBIN] | – | – | – | – | – | IC50 ([4]; hepg2): Not Active
O=C1Nc2ccccc2/C1=C1/Nc2ccccc2/C1=N\OCC1CO1 (stereo not drawn) | 89% | 31% | 4.3 min | 1700 nM | 2300 nM | inhibition at 1 µM [7]: 25%; Drug metabolism [8]: metabolite_detected; Activity [9]: 44%; Activity [10]: 69%
O=C1Nc2ccccc2/C1=C1/Nc2ccccc2/C1=N\O | – | – | – | 15000 nM | – | –
O=C1Nc2ccccc2/C1=N\OCC1CO1 (stereo not drawn) | – | – | – | – | – | Activity [11]: inactive
